Experimental data reported in patent publication US20230085307A1, “PYRIDAZINONE COMPOUND AND HERBICIDE” (NISSAN CHEMICAL CORPORATION, priority 2019, published 2023).

Assays:
late watergrass = test: Test Example 1: herbicidal activity, application before weed generation under submerged conditions (Table 16, symbol A); assay type: in vivo, late watergrass (Echinochloa oryzicola); details: 320 g/ha applied herbicide
Method in brief: (§1)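 Emulsion formulation, water-diluted to set dose, was put onto the flooded surface (4 cm depth, alluvial soil) the same day weeds were sown and 2.5-leaf rice transplanted. After 3 weeks at 25-30 °C under glass, each species was rated 0 (≤5% kill) to 5 (≥90% kill).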

Japanese bulrush = test: Test Example 1: herbicidal activity, application before weed generation under submerged conditions (Table 16, symbol B); assay type: in vivo, Japanese bulrush (Schoenoplectus juncoides); details: 320 g/ha applied herbicide
Method in brief: as §1

oval-leafed pondweed = test: Test Example 1: herbicidal activity, application before weed generation under submerged conditions (Table 16, symbol C); assay type: in vivo, oval-leafed pondweed (Monochoria vaginalis); details: 320 g/ha applied herbicide
Method in brief: as §1

barnyard grass [1] = test: Test Example 3: herbicidal effect by foliage application, Wagner pot (Table 18, symbol H); assay type: in vivo, barnyard grass (Echinochloa crus-galli); details: 320 g/ha
Method in brief: (§2)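 Plants were sown in alluvial soil held under 0.1–0.5 cm standing water and grown 14 days in a greenhouse at 25–30 °C. An emulsifiable formulation, water-diluted to the set dose, was then sprayed onto the foliage, and effects were scored three weeks later using previously defined criteria.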

Chinese sprangletop = test: Test Example 3: herbicidal effect by foliage application, Wagner pot (Table 18, symbol D); assay type: in vivo, chinese sprangletop (Leptochloa chinensis); details: 320 g/ha
Method in brief: as §2

rice flat sedge = test: Test Example 3: herbicidal effect by foliage application, Wagner pot (Table 18, symbol E); assay type: in vivo, rice flat sedge (Cyperus iria); details: 320 g/ha
Method in brief: as §2

southern crabgrass [2] = test: Test Example 4: herbicidal effect by soil treatment (Table 19, symbol F); assay type: in vivo, southern crabgrass (Digitaria ciliaris); details: amount of applied herbicide 320 g/ha
Method in brief: (§3)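 Soil-surface application: an emulsion agent diluted with water to the predetermined dose is sprayed uniformly over seeds lying under roughly 1.5 cm of sterilized diluvial soil. Boxes stay in a greenhouse at 25° C. to 30° C. Three weeks later, each species is graded on previously defined criteria.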

green foxtail [3] = test: Test Example 4: herbicidal effect by soil treatment (Table 19, symbol G); assay type: in vivo, green foxtail (Setaria viridis); details: amount of applied herbicide 320 g/ha
Method in brief: as §3

barnyard grass [4] = test: Test Example 4: herbicidal effect by soil treatment (Table 19, symbol H); assay type: in vivo, barnyard grass (Echinochloa crus-galli); details: amount of applied herbicide 320 g/ha
Method in brief: as §3

wild oat [5] = test: Test Example 4: herbicidal effect by soil treatment (Table 19, symbol I); assay type: in vivo, wild oat (Avena fatua); details: amount of applied herbicide 320 g/ha
Method in brief: as §3

blackgrass [6] = test: Test Example 4: herbicidal effect by soil treatment (Table 19, symbol J); assay type: in vivo, blackgrass (Alopecurus myosuroides); details: amount of applied herbicide 320 g/ha
Method in brief: as §3

Italian ryegrass [7] = test: Test Example 4: herbicidal effect by soil treatment (Table 19, symbol K); assay type: in vivo, Italian ryegrass (Lolium multiflorum); details: amount of applied herbicide 320 g/ha
Method in brief: as §3

windgrass [8] = test: Test Example 4: herbicidal effect by soil treatment (Table 19, symbol L); assay type: in vivo, windgrass (Apera spica-venti); details: amount of applied herbicide 320 g/ha
Method in brief: as §3

velvetleaf [9] = test: Test Example 4: herbicidal effect by soil treatment (Table 19, symbol M); assay type: in vivo, velvetleaf (Abutilon theophrasti); details: amount of applied herbicide 320 g/ha
Method in brief: as §3

redroot pigweed [10] = test: Test Example 4: herbicidal effect by soil treatment (Table 19, symbol N); assay type: in vivo, redroot pigweed (Amaranthus retroflexus); details: amount of applied herbicide 320 g/ha
Method in brief: as §3

lambsquarters [11] = test: Test Example 4: herbicidal effect by soil treatment (Table 19, symbol O); assay type: in vivo, lambsquarters (Chenopodium album); details: amount of applied herbicide 320 g/ha
Method in brief: as §3

chickweed [12] = test: Test Example 4: herbicidal effect by soil treatment (Table 19, symbol P); assay type: in vivo, common chickweed (Stellaria media); details: amount of applied herbicide 320 g/ha
Method in brief: as §3

false cleavers [13] = test: Test Example 4: herbicidal effect by soil treatment (Table 19, symbol Q); assay type: in vivo, false cleavers (Galium spurium); details: amount of applied herbicide 320 g/ha
Method in brief: as §3

persian speedwell [14] = test: Test Example 4: herbicidal effect by soil treatment (Table 19, symbol R); assay type: in vivo, Persian speedwell (Veronica persica); details: amount of applied herbicide 320 g/ha
Method in brief: as §3

southern crabgrass [15] = test: Test Example 5: herbicidal effect by foliage application, plastic box (Table 20, symbol F); assay type: in vivo, southern crabgrass (Digitaria ciliaris); details: foliage application, 320 g/ha, three weeks after application
Method in brief: (§4)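 Sow seeds spot-wise in sterilized diluvial soil; cover with ~1.5 cm soil. Grow 14 days in greenhouse, 25° C. to 30° C. Spray foliage with emulsion diluted to predetermined amount. Rate effect after 3 weeks.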

green foxtail [16] = test: Test Example 5: herbicidal effect by foliage application, plastic box (Table 20, symbol G); assay type: in vivo, green foxtail (Setaria viridis); details: foliage application, 320 g/ha, three weeks after application
Method in brief: as §4

barnyard grass [17] = test: Test Example 5: herbicidal effect by foliage application, plastic box (Table 20, symbol H); assay type: in vivo, barnyard grass (Echinochloa crus-galli); details: foliage application, 320 g/ha, three weeks after application
Method in brief: as §4

wild oat [18] = test: Test Example 5: herbicidal effect by foliage application, plastic box (Table 20, symbol I); assay type: in vivo, wild oat (Avena fatua); details: foliage application, 320 g/ha, three weeks after application
Method in brief: as §4

blackgrass [19] = test: Test Example 5: herbicidal effect by foliage application, plastic box (Table 20, symbol J); assay type: in vivo, blackgrass (Alopecurus myosuroides); details: foliage application, 320 g/ha, three weeks after application
Method in brief: as §4

Italian ryegrass [20] = test: Test Example 5: herbicidal effect by foliage application, plastic box (Table 20, symbol K); assay type: in vivo, Italian ryegrass (Lolium multiflorum); details: foliage application, 320 g/ha, three weeks after application
Method in brief: as §4

windgrass [21] = test: Test Example 5: herbicidal effect by foliage application, plastic box (Table 20, symbol L); assay type: in vivo, windgrass (Apera spica-venti); details: foliage application, 320 g/ha, three weeks after application
Method in brief: as §4

velvetleaf [22] = test: Test Example 5: herbicidal effect by foliage application, plastic box (Table 20, symbol M); assay type: in vivo, velvetleaf (Abutilon theophrasti); details: foliage application, 320 g/ha, three weeks after application
Method in brief: as §4

redroot pigweed [23] = test: Test Example 5: herbicidal effect by foliage application, plastic box (Table 20, symbol N); assay type: in vivo, redroot pigweed (Amaranthus retroflexus); details: foliage application, 320 g/ha, three weeks after application
Method in brief: as §4

lambsquarters [24] = test: Test Example 5: herbicidal effect by foliage application, plastic box (Table 20, symbol O); assay type: in vivo, lambsquarters (Chenopodium album); details: foliage application, 320 g/ha, three weeks after application
Method in brief: as §4

chickweed [25] = test: Test Example 5: herbicidal effect by foliage application, plastic box (Table 20, symbol P); assay type: in vivo, common chickweed (Stellaria media); details: foliage application, 320 g/ha, three weeks after application
Method in brief: as §4

false cleavers [26] = test: Test Example 5: herbicidal effect by foliage application, plastic box (Table 20, symbol Q); assay type: in vivo, false cleavers (Galium spurium); details: foliage application, 320 g/ha, three weeks after application
Method in brief: as §4

persian speedwell [27] = test: Test Example 5: herbicidal effect by foliage application, plastic box (Table 20, symbol R); assay type: in vivo, Persian speedwell (Veronica persica); details: foliage application, 320 g/ha, three weeks after application
Method in brief: as §4

COc1ccc(F)c(-c2sc3ccccc3c2-c2c(O)c(C)nn(C)c2=O)c1 [1-053]
Herbicidal effect on A: late watergrass (grade 0-5) (late watergrass): 3 (Herbicidal rate of 40% or more and less than 70%)
Herbicidal effect on B: Japanese bulrush (grade 0-5) (Japanese bulrush): 2 (Herbicidal rate of 20% or more and less than 40%)
Herbicidal effect on C: oval-leafed pondweed (grade 0-5) (oval-leafed pondweed): 1 (Herbicidal rate of 5% or more and less than 20%)
herbicidal effect on H (barnyard grass), rating 0-5 (barnyard grass [1]): 3 (Herbicidal rate of 40% or more and less than 70%)
herbicidal effect on D (Chinese sprangletop), rating 0-5 (Chinese sprangletop): 0 (Herbicidal rate of 5% or less (almost no effect))
herbicidal effect on E (rice flat sedge), rating 0-5 (rice flat sedge): 1 (Herbicidal rate of 5% or more and less than 20%)
herbicidal effect rating, F: southern crabgrass (southern crabgrass [2]): 2 (Herbicidal rate of 20% or more and less than 40%)
herbicidal effect rating, G: green foxtail (green foxtail [3]): 3 (Herbicidal rate of 40% or more and less than 70%)
herbicidal effect rating, H: barnyard grass (barnyard grass [4]): 1 (Herbicidal rate of 5% or more and less than 20%)
herbicidal effect rating, I: wild oat (wild oat [5]): 0 (Herbicidal rate of 5% or less (almost no effect))
herbicidal effect rating, J: blackgrass (blackgrass [6]): 0 (Herbicidal rate of 5% or less (almost no effect))
herbicidal effect rating, K: Italian ryegrass (Italian ryegrass [7]): 3 (Herbicidal rate of 40% or more and less than 70%)
herbicidal effect rating, L: windgrass (windgrass [8]): 0 (Herbicidal rate of 5% or less (almost no effect))
herbicidal effect rating, M: velvetleaf (velvetleaf [9]): 2 (Herbicidal rate of 20% or more and less than 40%)
herbicidal effect rating, N: redroot pigweed (redroot pigweed [10]): 4 (Herbicidal rate of 70% or more and less than 90%)
herbicidal effect rating, O: lambsquarters (lambsquarters [11]): 5 (Herbicidal rate of 90% or more (almost completely withered))
herbicidal effect rating, P: chickweed (chickweed [12]): 5 (Herbicidal rate of 90% or more (almost completely withered))
herbicidal effect rating, Q: false cleavers (false cleavers [13]): 0 (Herbicidal rate of 5% or less (almost no effect))
herbicidal effect rating, R: persian speedwell (persian speedwell [14]): 3 (Herbicidal rate of 40% or more and less than 70%)
herbicidal effect grade, F: southern crabgrass (southern crabgrass [15]): 3 (Herbicidal rate of 40% or more and less than 70%)
herbicidal effect grade, G: green foxtail (green foxtail [16]): 4 (Herbicidal rate of 70% or more and less than 90%)
herbicidal effect grade, H: barnyard grass (barnyard grass [17]): 3 (Herbicidal rate of 40% or more and less than 70%)
herbicidal effect grade, I: wild oat (wild oat [18]): 3 (Herbicidal rate of 40% or more and less than 70%)
herbicidal effect grade, J: blackgrass (blackgrass [19]): 2 (Herbicidal rate of 20% or more and less than 40%)
herbicidal effect grade, K: Italian ryegrass (Italian ryegrass [20]): 3 (Herbicidal rate of 40% or more and less than 70%)
herbicidal effect grade, L: windgrass (windgrass [21]): 3 (Herbicidal rate of 40% or more and less than 70%)
herbicidal effect grade, M: velvetleaf (velvetleaf [22]): 5 (Herbicidal rate of 90% or more (almost completely withered))
herbicidal effect grade, N: redroot pigweed (redroot pigweed [23]): 4 (Herbicidal rate of 70% or more and less than 90%)
herbicidal effect grade, O: lambsquarters (lambsquarters [24]): 4 (Herbicidal rate of 70% or more and less than 90%)
herbicidal effect grade, P: chickweed (chickweed [25]): 5 (Herbicidal rate of 90% or more (almost completely withered))
herbicidal effect grade, Q: false cleavers (false cleavers [26]): 3 (Herbicidal rate of 40% or more and less than 70%)
herbicidal effect grade, R: persian speedwell (persian speedwell [27]): 5 (Herbicidal rate of 90% or more (almost completely withered))
